Results reported in patent US20100190834A1, “COMPOSITION FOR OPHTALMIC DISEASE ASSOCIATED WITH HYPOXIA OR ISCHEMIA” (R-TECH UENO, LTD., priority 2007, published 2010).
Marks after values point to notes of the source that are not given here.

Test system: oxygen-induced retinopathy model mouse
Assay: Oxygen-induced retinopathy model mouse (model of retinopathy of prematurity), retina flat mount analysis
Type: in vivo, C57BL/6N mouse
Settings: for abnormal angiogenesis region (%) / normal blood vessel region (%): average, p < 0.05 vs medium; for avascular region (result in words) / effect on abnormal angiogenesis (result in words): summary of Table 1 and Table 2, compared with medium group
Description: A model experiment of retinopathy of prematurity, which is an ophthalmic disease associated with hypoxia or ischemia, was performed based on a quantitative analysis method of oxygen-induced retinopathy model mouse (Experimental Eye Research 84 (2007) 529-536).
The date of birth of mouse was taken as day 0 of age. On day 7 of age, the mouse was placed in a high oxygen concentration breeding device together with the mother mouse and bred under high oxygen conditions (oxygen concentration 75±5%) up to day 12 of age. On day 12 of age, the high oxygen concentration breeding was terminated and the mouse was immediately placed under general breeding with intraperitoneal administration of the medium or test solution 1 twice a day for 7 days. On day 19 of age, retina flat mount was prepared from 4 mice out of the litter.
The mice were anesthetized by intraperitoneal administration of nembutal (1/10-fold diluted, 5 mg/mL) at 0.1 mL/mouse. The thoracic cavity was opened, and 1 mL of fluorescein isothiocyanate-dextran (FITC-dextran 20 mg/mL, FD2000S-1G, manufactured by SIGMA) was perfused from the heart.
After perfusion, the eyeball was immediately isolated, and fixed with 4% para-formaldehyde for 3-4 hr. The eyeball was anatomized to isolate retina, which as developed on a slide glass to prepare a flat mount. The whole retina area, avascular region and abnormal angiogenesis region were encircled with a stylus pen (CTE-640/S1, WACOM FVO) under a fluorescence microscope (ECLIPSE 80i, manufactured by Nikon), and measured using an analysis soft (WinROOF ver. 5.7.0, MITAMI Cor.), based on which the normal blood vessel region and abnormal angiogenesis region were calculated and compared.
normal blood vessel region (%): [{(whole retina area)−(area of avascular region)}/(whole retina area)]×100
abnormal angiogenesis region (%): {(abnormal angiogenesis region)/(whole retina area)}×100
In the same manner as in Experimental Example 1 except that test solution 2 was administered once a day, test solution 2 was intraperitoneally administered to model mouse for 7 days, and the normal blood vessel region and abnormal angiogenesis region thereof were measured.

[1] = test solution 2 (0.01 mg/mL) intraperitoneal once a day for 7 days, 18 eyes
[2] = test solution 1 (0.01 mg/mL) intraperitoneal twice a day for 7 days from day 12 of age, retina flat mount on day 19, 12 eyes

SMILES | abnormal angiogenesis region (%) [1] | normal blood vessel region (%) [1] | avascular region (result in words) | effect on abnormal angiogenesis (result in words) | abnormal angiogenesis region (%) [2] | normal blood vessel region (%) [2]
CC(=O)Nc1nc(CCc2ccc(CCNC(=N)N)cc2)cs1 [test substance 2, N-(4-{2-[4-(2-{[amino(imino)methyl]amino}ethyl)phenyl]ethyl}-1,3-thiazol-2-yl)acetamide] | 6.79* % | 94.69* % | a decrease in the avascular region | a suppressive effect on abnormal angiogenesis |  | 
CC(=O)Nc1nc(CCc2ccc(CC(=O)NN)cc2)cs1 [test substance 1, N-{4-[2-(4-hydrazinocarbonylmethylphenyl)ethyl]-1,3-thiazol-2-yl}acetamide] |  |  | a decrease in the avascular region | a suppressive effect on abnormal angiogenesis | 7.04* % | 93.44* %
